Measurements taken from patent US20230226043A1 (priority 2020, published 2023).

Experiments:
[1] = system: SARS-CoV-2; settings: 10 μM; cited from earlier work
[2] = system: non-senescent BV2 cells; assay: Viability of non-senescent BV2 cells, sulforhodamine B (SRB) assay; format: cell-based; settings: 48 h exposure, masitinib 0.1-2 μM and/or isoquercetin 1-20 μM
Method: (§1) BV2 cells are retroviral-immortalized microglia-like cells, which are used as a model for cellular senescence. BV2 cells were cultured in Dulbecco's modified Eagle's medium supplemented with 10% heat-inactivated fetal bovine serum (hiFBS) and plated in 6-well multiwell plates for treatment and flow cytometry analysis.
(§2) For cellular viability analysis of non-senescent cells (BV2 cells) and senescent cells (BV2 cells pretreated with TMZ), cells were plated in 96-well multiwell plates during 72 hours. […] After 48 hours of treatment, cell viability was analyzed by sulforhodamine B (SRB) assay. The optical density (OD) of each well was read in a 96-well plate reader at 540 nm. The OD of the SRB solution is directly proportional to the cell number.

[3] = system: senescent BV2 cells; assay: Viability of senescent BV2 cells (pretreated with TMZ), SRB assay; format: cell-based; settings: for cell viability of senescent BV2 cells, single agent: single agent below the high concentrations (2 μM masitinib, 20 μM isoquercetin)
Method: as §1
BV2 cells were treated with temozolomide (TMZ), an alkylating agent inducing DNA damage, in order to induce senescence of the cells. For senescence induction studies, cells were plated and treated twice with increasing doses (10-150 μM) of TMZ during 5 hours every 24 hours. After exposure of BV2 cells to two successive treatments with TMZ, their proliferation was reduced and the cells developed a characteristic senescent phenotype with enlarged size and flat-granulated shape. The senescent phenotype of BV2 cells after TMZ-induced genotoxicity was further confirmed by measuring the number of cells displaying β-gal activity, a well-recognized marker of cellular senescence. After the second TMZ-treatment, flow cytometry analysis was thus carried out using a 5-Dodecanoylaminofluorescein Di-β-D-Galactopyranoside (C12FDG) kit to measure β-galactosidase activity by the alkalinization of lysosomes as described by the manufacturer's instructions (Thermo Fisher Scientific, #D2893). TMZ induced a dose-dependent increase in the number β-gal+ cells. Up to 60% of β-gal+BV2 cells, i.e., senescent cells, were obtained at a TMZ concentration of 100 μM (data not shown).
as §2

[4] = system: OC43; assay: Drug repurposing screen, OC43 nucleoprotein staining in A549-mRuby cells; format: cell-based, human beta coronavirus OC43 (HCoV-OC43); settings: for % staining of OC43: normalized to no-drug controls in the same plate
Method: (§3) Cells were seeded in a final volume of […] with DMEM+10% BCS. […] All the following steps were performed at room temperature. […] The screen was performed twice.

[5] = system: A549-mRuby cells; assay: Cell growth in the drug screen (cell numbers day 4 / day 0); format: cell-based, human
Method: as §3

[6] = system: OC43; assay: Dose-response analysis of OC43 infection in A549-mRuby cells; format: cell-based, human beta coronavirus OC43 (HCoV-OC43); settings: Betacoronavirus 1, OC43, A549, 48 h, read-out: EC50 against OC43 infection
Method: Dose-response analysis of OC43 infection was done similarly to the drug screening, except cells were seeded at a concentration of 5,000 cells per well and the media contained 2% BCS instead of 10% BCS. OC43 staining was performed 2 days after infection and analyzed similarly to what was described for the drug screening. A sigmoid fit was used to extract EC50 values using Matlab.

[7] = system: OC43; assay: OC43 replication in primary human airway epithelial cells; format: cell-based, human beta coronavirus OC43 (HCoV-OC43); settings: Betacoronavirus 1, OC43, Epithelial cell, read-out: EC50, inhibition of OC43 replication
[8] = system: SARS-CoV-2; assay: SARS-CoV-2 progeny production, plaque titers on Vero E6 cells; format: cell-based; settings: 10 μM; for decrease of SARS-CoV-2 progeny production: 2 h pre-treatment, MOI 0.5, supernatant 2 days
Method: For SARS-CoV-2 plaque titers, cell supernatants from the infection described above were serially diluted (10-fold steps were used) and used to infect Vero E6 cells for 1 hour. Inoculum was removed and 1.25% methylcellulose DMEM solution was added to the cells and incubated for 3 days. Plates were fixed in 1:10 formalin for 1 hour, stained with crystal violet for 1 hour and were counted to determine plaque forming units (PFU)/ml.

[9] = system: coxsackievirus B3 (CVB3); assay: Picornavirus infection of Huh7 cells, plaque titration; format: cell-based; settings: 10 M [sic] masitinib, MOI 0.01, 24 h
Method: (§4) Prior to infection, Huh7 cells were pretreated for two hours. Virus was diluted using serum-free DMEM (SFM) to achieve an MOI of 0.01. Cell supernatants (collected at 24 hours post infection) were dilutions in SFM and used to inoculate Vero cells for 10-15 min at 37 C. Cells were incubated for 2 days at 37 C after overlaying them DMEM containing 2% NBCS and 0.8% agarose. […] The number of plaque forming units (PFU/per milliliter) were then calculated.

[10] = system: human rhinovirus 14 (HRV14); assay: as above; format: cell-based; settings: 10 M [sic] masitinib, MOI 0.01, 24 h
Method: as §4

[11] = system: human rhinovirus 16 (HRV16); assay: as above; format: cell-based; settings: 10 M [sic] masitinib, MOI 0.01, 24 h
Method: as §4

[12] = system: human rhinovirus 2 (HRV2); assay: as above; format: cell-based; settings: 10 M [sic] masitinib, MOI 0.01, 24 h
Method: as §4

[13] = system: influenza A virus (IAV); assay: Influenza A infection of MDCK-SIAT1-TMPRSS2 cells; format: cell-based, Influenza A/Puerto Rico/8/1934 (PR8); settings: 10 μM, n=3, p>0.07
Method: MDCK-SIAT1-TMPRSS2 cells were infected with Influenza A/Puerto Rico/8/1934 (PR8) at an MOI of 0.01 TCID50/cell. Following a 1 hour adsorption, virus was removed and the cells were washed. […] Supernatants were harvested and clarified at 20 hours post infection. The supernatants were titrated using TCID on MDCK-SIAT1-TMPRSS2 cells.

[14] = system: measles virus (MeV); assay: Measles virus inhibition assay in Vero cells, luciferase; format: cell-based; settings: 10 μM, n=3, p>0.07
Method: Vero cells were infected with a luciferase-expressing measles virus at an MOI of 0.01 for 90 minutes. The inoculum was removed and added fresh medium containing masitinib or DMSO to the cells for further culture. Three days later, firefly luciferase activity was measured by adding 0.5 mM of D-Luciferin to each well and was quantified with an Infinite M200 Pro multimode microplate reader.

[15] = system: lymphocytic choriomeningitis virus (LCMV); format: cell-based; settings: 10 μM, n=2, p>0.07
[16] = system: Chikungunya virus (CHIKV); assay: Chikungunya virus infection; format: cell-based; settings: 10 μM, n=3, p>0.07
[17] = system: SARS-CoV-2; assay: SARS-CoV-2 intranasal challenge of K18-hACE2 mice; settings: bid, ip, vs PBS; for clinical score: 1-6 days post infection
[18] = molecular target: picornaviruses 3C protease (Coxsackievirus B3, UniProt P03313); assay: 3C protease activity assay, luciferase reporter in Huh7 cells; settings: n=6, p-value=7×10-6
[19] = 25 or 50 mg/kg, 4 and 6 days post infection

Sequence of picornaviruses 3C protease (P03313 1541-1723 limits assumed): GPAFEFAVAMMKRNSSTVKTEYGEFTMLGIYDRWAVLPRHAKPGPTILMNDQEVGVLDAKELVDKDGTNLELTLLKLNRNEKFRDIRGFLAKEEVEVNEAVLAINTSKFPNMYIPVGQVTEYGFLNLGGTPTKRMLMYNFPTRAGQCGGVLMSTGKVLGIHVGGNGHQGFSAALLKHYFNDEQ

O=CC(CC1CCNC1=O)NC(=O)C(CC1CCCCC1)NC(=O)c1cc2ccccc2[nH]1 (stereo not shown) [11a]
inhibition of SARS-CoV-2 progeny production [1]: 2 logs

O=CC(CC1CCNC1=O)NC(=O)C(Cc1cccc(F)c1)NC(=O)c1cc2ccccc2[nH]1 (stereo not shown) [11b]
inhibition of SARS-CoV-2 progeny production [1]: 2 logs

O=c1c(O[C@@H]2O[C@H](CO)[C@@H](O)[C@H](O)[C@H]2O)c(-c2ccc(O)c(O)c2)oc2cc(O)cc(O)c12 [isoquercetin, 2-(3,4-dihydroxyphenyl)-5,7-dihydroxy-3-[(2S,3R,4S,5S,6R)-3,4,5-trihydroxy-6-(hydroxymethyl)oxan-2-yl]oxychromen-4-one]
cell viability of non-senescent proliferating BV2 cells [2]: no significant change in cell viability
cytotoxicity at 20 µM ([3]; Mus musculus, BV-2, 20 μM isoquercetin alone, 48 h, TMZ-induced senescent BV2 cells, read-out: reduction in senescent cell viability): ~25%
cell viability of senescent BV2 cells, single agent [3]: modest reduction in cell viability

Cc1ccc(NC(=O)c2ccc(CN3CCN(C)CC3)cc2)cc1Nc1nc(-c2cccnc2)cs1 [masitinib, 4-(4-methylpiperazin-1-ylmethyl)-N-[4-methyl-3-(4-pyridin-3ylthiazol-2-ylamino)phenyl]benzamide]
cell viability of non-senescent proliferating BV2 cells [2]: no significant change in cell viability
cytotoxicity at 2 µM ([3]; Mus musculus, BV-2, 48 h, read-out: reduction in senescent cell viability): ~25%
cell viability of senescent BV2 cells, single agent [3]: modest reduction in cell viability
mean % staining of OC43 ([4]; mean of two screen repeats, normalized to no-drug controls (=100), drug at 10 PM as printed, day 4): 12.2%
% staining of OC43 ([4]; screen repeat #1): 14.4%
% staining of OC43 ([4]; screen repeat #2): 10.1%
number of cells at day 4 divided by number of cells at day 0 ([5]; screen repeat #1): 4.3
number of cells at day 4 divided by number of cells at day 0 ([5]; screen repeat #2): 4.7
EC50 [6]: 2100 nM
EC50 [7]: 580 nM
decrease of SARS-CoV-2 progeny production [8]: over 5 logs
decrease of SARS-CoV-2 progeny production ([8]; listed as Masitinib): > 5 logs
reduction in viral titers (SARS-CoV-2 progeny) ([8]; n=3, p<0.001): statistically significant
replication of coxsackievirus B3 (CVB3) [9]: effective in blocking the replication
replication of human rhinovirus 14 (HRV14) [10]: effective in blocking the replication
replication of human rhinovirus 16 (HRV16) [11]: effective in blocking the replication
replication of human rhinovirus 2 (HRV2) [12]: effective in blocking the replication
effect on cells infected by influenza A virus (IAV) [13]: did not show a significant effect
effect on cells infected by measles virus (MeV) [14]: did not show a significant effect
effect on cells infected by lymphocytic choriomeningitis virus (LCMV) [15]: did not show a significant effect
effect on cells infected by Chikungunya virus (CHIKV) [16]: did not show a significant effect
clinical score ([17]; 25 mg/kg): significant decrease
clinical score ([17]; 50 mg/kg): significant decrease
SARS-CoV-2 viral load in the lung [17, 19]: significant decrease
SARS-CoV-2 viral load in the nasal turbinates [17, 19]: significant decrease
activity of the 3C protease in cells [18]: significantly inhibited
